Results on 23 compounds are retold here after patent US8815864B2, “Indanyloxydihydrobenzofuranylacetic acids” (Boehringer Ingelheim International GmbH, priority 2012, dated 2014).

Chain of human GPR40 receptor (O14842 whole entry): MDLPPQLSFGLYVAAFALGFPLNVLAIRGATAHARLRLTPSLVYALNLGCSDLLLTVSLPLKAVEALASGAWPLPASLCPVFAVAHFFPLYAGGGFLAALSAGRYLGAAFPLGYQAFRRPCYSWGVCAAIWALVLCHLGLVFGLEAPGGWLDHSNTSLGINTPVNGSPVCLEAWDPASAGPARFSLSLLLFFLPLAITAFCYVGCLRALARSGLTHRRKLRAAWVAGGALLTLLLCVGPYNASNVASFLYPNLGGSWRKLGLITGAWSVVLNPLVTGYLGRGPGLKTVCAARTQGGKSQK

The target of this assay is human GPR40 receptor (Homo sapiens, UniProt O14842). The assay can be described thus: IP1 accumulation measurements using the IPOne assay system. Type of assay: cell-based. To be noted: 1321N1 cells stably expressing human GPR40; stimulation 1 h at 37° C. The procedure:
IP1 accumulation measurements using the IPOne assay system—1321N1 cells stably expressing human GPR40 receptor (Euroscreen, Belgium) are seeded 24 h before the assay in white 384-well plates in culture medium containing 10% FCS, 1% Na-Pyruvate and 400 μg/mL G418. IP1 is assayed according to the manufacturer's description (Cisbio Bioassays, France). In brief, the assay is started by substitution of the culture medium by stimulation buffer (Hepes 10 mM, CaCl2 1 mM, MgCl2 0.5 mM, KCl 4.2 mM, NaCl 146 mM, glucose 5.5 mM and LiCl 50 mM, pH 7.4). Cells are stimulated for 1 h at 37° C., 5% CO2 by addition of the compounds that are diluted in stimulation buffer containing LiCl. Assays are stopped by adding HTRF-conjugates (IP1-d2 and Anti-IP1 cryptate Tb) and lysis buffer, provided by the manufacturer. After an incubation time of 1 h at room temperature plates are measured using an EnVision™, Perkin Elmer. The obtained fluorescence ratios at 665/615 […] are then used to calculate the pEC50 values using Assay Explorer 3.3 Software (Accelrys, Inc.) by interpolation using an IP1 reference curve and subsequent sigmoidal curve fitting allowing for a variable hill slope.
In general, EC50 refers to the concentration that produces a half-maximal response. Low readings indicate a more potent agent, high ones a less potent agent. `O=C(O)C[C@@H]1COc2cc(O[C@@H]3CCc4c(Oc5ccnc(C(F)(F)F)c5)ccc(F)c43)ccc21` [Example 32, {(S)-6-[(R)-7-Fluoro-4-(2-trifluoromethyl-pyrid-4-yloxy)-indan-1-yloxy]-2,3-dihydro-benzofuran-3}-acetic acid] came in with an EC50 of 0.006 µM.

Compound `O=C(O)C[C@@H]1COc2cc(O[C@@H]3CCc4c(Oc5ncc(F)cn5)ccc(F)c43)ccc21` [Example 33, {(S)-6-[(R)-7-Fluoro-4-(5-fluoro-pyrimid-2-yloxy)-indan-1-yloxy]-2,3-dihydro-benzofuran-3-yl}-acetic acid] showed an EC50 of 0.031 µM.

With `COc1ccc(Oc2ccc(F)c3c2CC[C@H]3Oc2ccc3c(c2)OC[C@H]3CC(=O)O)cn1` [Example 34, {(S)-6-[(R)-7-Fluoro-4-(2-methoxy-pyrid-5-yloxy)-indan-1-yloxy]-2,3-dihydro-benzofuran-3-yl}-acetic acid], the EC50 was determined as 0.005 µM.

In the case of `COc1ncc(Oc2ccc(F)c3c2CC[C@H]3Oc2ccc3c(c2)OC[C@H]3CC(=O)O)cn1` [Example 35, {(S)-6-[(R)-7-Fluoro-4-(2-methoxy-pyrimid-5-yloxy)-indan-1-yloxy]-2,3-dihydro-benzofuran-3-yl}-acetic acid], the EC50 is 0.079 µM. This EC50 is about 16-fold higher than that of the compound before.

The compound `COc1cc(Oc2ccc(F)c3c2CC[C@H]3Oc2ccc3c(c2)OC[C@H]3CC(=O)O)ccn1` [Example 36, {(S)-6-[(R)-7-Fluoro-4-(2-methoxy-pyrid-4-yloxy)-indan-1-yloxy]-2,3-dihydro-benzofuran-3-yl}-acetic acid] registered a half-maximal effective concentration (EC50) of 0.004 µM.

Consider `COc1cc(Oc2ccc(F)c3c2CC[C@H]3Oc2ccc3c(c2)OC[C@H]3CC(=O)O)ccc1C#N` [Example 37, {(S)-6-[(R)-4-(4-Cyano-3-methoxy-phenoxy)-7-fluoro-indan-1-yloxy]-2,3-dihydro-benzofuran-3-yl}-acetic acid], for which a half-maximal effect (EC50) was put at 0.005 µM.

In turn, `Cn1ccc2cc(Oc3ccc(F)c4c3CC[C@H]4Oc3ccc4c(c3)OC[C@H]4CC(=O)O)ccc21` [Example 38, {(S)-6-[(R)-7-Fluoro-4-(1-methyl-1H-indol-5-yloxy)-indan-1-yloxy]-2,3-dihydro-benzofuran-3-yl}-acetic acid] displayed a 50% effective concentration (EC50) of 0.006 µM.

The compound `O=C(O)C[C@@H]1COc2cc(O[C@@H]3CCc4c(Oc5cccc6cccnc56)ccc(F)c43)ccc21` [Example 39, {(S)-6-[(R)-7-Fluoro-4-(Quinolin-8-yloxy)-indan-1-yloxy]-2,3-dihydro-benzofuran-3-yl}-acetic acid] returned an EC50 of 0.021 µM.

Compound `O=C(O)C[C@@H]1COc2cc(O[C@@H]3CCc4c(Oc5ccc6ccccc6n5)ccc(F)c43)ccc21` [Example 40, {(S)-6-[(R)-7-Fluoro-4-(Quinolin-2-yloxy)-indan-1-yloxy]-2,3-dihydro-benzofuran-3-yl}-acetic acid] yielded an EC50 of 0.022 µM.

`N#Cc1ccc(Oc2ccc(F)c3c2CC[C@H]3Oc2ccc3c(c2)OC[C@H]3CC(=O)O)c(C#N)c1` [Example 41, {(S)-6-[(R)-4-(2,4-Dicyano-phenoxy)-7-fluoro-indan-1-yloxy]-2,3-dihydro-benzofuran-3-yl}-acetic acid] displayed an EC50 of 0.017 µM.

The compound `Cn1cnc2cc(Oc3ccc(F)c4c3CC[C@H]4Oc3ccc4c(c3)OC[C@H]4CC(=O)O)ccc21` [Example 42, {(S)-6-[(R)-7-Fluoro-4-(1-methyl-1H-benzoimidazol-5-yloxy)-indan-1-yloxy]-2,3-dihydro-benzofuran-3-yl}-acetic acid] showed a half-maximal effective concentration (EC50) of 0.891 µM. Compared with the last compound, the EC50 is about 52-fold higher.

Take `O=C(O)C[C@@H]1COc2cc(O[C@@H]3CCc4c(Oc5ncc6ccccc6n5)ccc(F)c43)ccc21` [Example 43, {(S)-6-[(R)-7-Fluoro-4-(Quinazolin-2-yloxy)-indan-1-yloxy]-2,3-dihydro-benzofuran-3-yl}-acetic acid]: the EC50 came out at 0.034 µM.

In the case of `COc1ccc(Oc2ccc(F)c3c2CC[C@H]3Oc2ccc3c(c2)OC[C@H]3CC(=O)O)nc1` [Example 44, {(S)-6-[(R)-7-Fluoro-4-(5-methoxy-pyrid-2-yloxy)-indan-1-yloxy]-2,3-dihydro-benzofuran-3-yl}-acetic acid], the EC50 stood at 0.019 µM.

On to `Cn1ncc2cc(Oc3ccc(F)c4c3CC[C@H]4Oc3ccc4c(c3)OC[C@H]4CC(=O)O)ccc21` [Example 45, {(S)-6-[(R)-7-Fluoro-4-(1-methyl-1H-indazol-5-yloxy)-indan-1-yloxy]-2,3-dihydro-benzofuran-3-yl}-acetic acid], for which the EC50 amounted to 0.007 µM.

`Cn1ncc2ccc(Oc3ccc(F)c4c3CC[C@H]4Oc3ccc4c(c3)OC[C@H]4CC(=O)O)cc21` [Example 46, {(S)-6-[(R)-7-Fluoro-4-(1-methyl-1H-indazol-6-yloxy)-indan-1-yloxy]-2,3-dihydro-benzofuran-3-yl}-acetic acid] had a 50% effective concentration (EC50) of 0.003 µM. This EC50 is about 2.3-fold lower than that of the compound before.

With `Cc1cc2c(cnn2C)cc1Oc1ccc(F)c2c1CC[C@H]2Oc1ccc2c(c1)OC[C@H]2CC(=O)O` [Example 47, {(S)-6-[(R)-7-Fluoro-4-(1,6-dimethyl-1H-indazol-5-yloxy)-indan-1-yloxy]-2,3-dihydro-benzofuran-3-yl}-acetic acid], a half-maximal response (EC50) required 0.026 µM.

The compound `Cc1nc2cc(Oc3ccc(F)c4c3CC[C@H]4Oc3ccc4c(c3)OC[C@H]4CC(=O)O)ccc2s1` [Example 48, {(S)-6-[(R)-7-Fluoro-4-(2-methyl-benzothiazol-5-yloxy)-indan-1-yloxy]-2,3-dihydro-benzofuran-3-yl}-acetic acid] displayed an EC50 of 0.007 µM.

In turn, `Cc1cc(Oc2ccc(F)c3c2CC[C@H]3Oc2ccc3c(c2)OC[C@H]3CC(=O)O)cc(C)c1C#N` [Example 49, {(S)-6-[(R)-4-(4-Cyano-3,5-dimethyl-phenoxy)-7-fluoro-indan-1-yloxy]-2,3-dihydro-benzofuran-3-yl}-acetic acid] gave an EC50 of 0.012 µM.

With `N#Cc1ccc(Br)cc1Oc1ccc(F)c2c1CC[C@H]2Oc1ccc2c(c1)OC[C@H]2CC(=O)O` [Example 50, {(S)-6-[(R)-4-(5-Bromo-2-cyano-phenoxy)-7-fluoro-indan-1-yloxy]-2,3-dihydro-benzofuran-3-yl}-acetic acid], the EC50 amounted to 0.006 µM.

Turning to `N#Cc1cc(F)c(Oc2ccc(F)c3c2CC[C@H]3Oc2ccc3c(c2)OC[C@H]3CC(=O)O)c(F)c1` [Example 51, {(S)-6-[(R)-4-(4-cyano-2,6-difluoro-phenoxy)-7-fluoro-indan-1-yloxy]-2,3-dihydro-benzofuran-3-yl}-acetic acid], the response was half-maximal at 0.018 µM (EC50). Compared with the last compound, the EC50 is about 3-fold higher.

`COc1cc(C#N)ccc1Oc1ccc(F)c2c1CC[C@H]2Oc1ccc2c(c1)OC[C@H]2CC(=O)O` [Example 52, {(S)-6-[(R)-4-(4-Cyano-2-methoxy-phenoxy)-7-fluoro-indan-1-yloxy]-2,3-dihydro-benzofuran-3-yl}-acetic acid] displayed a half-maximal effective concentration (EC50) of 0.006 µM.

In turn, `Cc1c(Oc2ccc(F)c3c2CC[C@H]3Oc2ccc3c(c2)OC[C@H]3CC(=O)O)ccc2c1cnn2C` [Example 53, {(S)-6-[(R)-7-Fluoro-4-(1,4-dimethyl-1H-indazol-5-yloxy)-indan-1-yloxy]-2,3-dihydro-benzofuran-3-yl}-acetic acid] gave an EC50 of 0.069 µM.

For the compound `N#Cc1ccc(F)c(Oc2ccc(F)c3c2CC[C@H]3Oc2ccc3c(c2)OC[C@H]3CC(=O)O)c1` [Example 54, {(S)-6-[(R)-4-(5-Cyano-2-fluoro-phenoxy)-7-fluoro-indan-1-yloxy]-2,3-dihydro-benzofuran-3-yl}-acetic acid], the midpoint of the response, the EC50, lay at 0.029 µM.
